Series [1] relates to MDA-MB-468. The experiment in a line: Growth inhibition of human MDA-MB-468 cells measured after 5 days by sulforhodamine B assay. It is filed as functional. As to conditions: MDA-MB-468, 120 h. A general note: In SRB staining, fixed cells bind dye roughly in proportion to their protein.
The test system of series [2] is HCT-116. As to the kind of experiment: Growth inhibition of human HCT116 cells measured after 5 days by sulforhodamine B assay. It is filed as functional. The settings on record: HCT-116, 120 h.
Series [3] concerns OVCAR-3. As to the kind of experiment: Growth inhibition of human OVCAR3 cells measured after 5 days by sulforhodamine B assay. The format is functional. The settings on record: OVCAR-3, 120 h.
Series [4] is described as follows: Solubility of the compound at pH 7.4. The settings on record: buffer. The format is physicochemical.
Series [5] is described as follows: Solubility of the compound at pH 2. It is filed as physicochemical. As to conditions: buffer.
Series [6] in a line: Dissociation constant, pKa of the compound. It is filed as physicochemical.
Series [7] can be described thus: Cmax in athymic CD-1 nude mouse at 10 mg/kg, po by LC-MS/MS analysis. The format is ADME, organism-based. Details: dose 10 mg/kg, route oral. The settings on record: in vivo.
The nature of series [8]: AUC in athymic CD-1 nude mouse at 10 mg/kg, po by LC-MS/MS analysis. The format is ADME, organism-based. As to conditions: in vivo.
In series [9] the target is T1, Dual specificity protein kinase TTK (Homo sapiens, UniProt P33981).
T1 sequence (P33981 whole entry): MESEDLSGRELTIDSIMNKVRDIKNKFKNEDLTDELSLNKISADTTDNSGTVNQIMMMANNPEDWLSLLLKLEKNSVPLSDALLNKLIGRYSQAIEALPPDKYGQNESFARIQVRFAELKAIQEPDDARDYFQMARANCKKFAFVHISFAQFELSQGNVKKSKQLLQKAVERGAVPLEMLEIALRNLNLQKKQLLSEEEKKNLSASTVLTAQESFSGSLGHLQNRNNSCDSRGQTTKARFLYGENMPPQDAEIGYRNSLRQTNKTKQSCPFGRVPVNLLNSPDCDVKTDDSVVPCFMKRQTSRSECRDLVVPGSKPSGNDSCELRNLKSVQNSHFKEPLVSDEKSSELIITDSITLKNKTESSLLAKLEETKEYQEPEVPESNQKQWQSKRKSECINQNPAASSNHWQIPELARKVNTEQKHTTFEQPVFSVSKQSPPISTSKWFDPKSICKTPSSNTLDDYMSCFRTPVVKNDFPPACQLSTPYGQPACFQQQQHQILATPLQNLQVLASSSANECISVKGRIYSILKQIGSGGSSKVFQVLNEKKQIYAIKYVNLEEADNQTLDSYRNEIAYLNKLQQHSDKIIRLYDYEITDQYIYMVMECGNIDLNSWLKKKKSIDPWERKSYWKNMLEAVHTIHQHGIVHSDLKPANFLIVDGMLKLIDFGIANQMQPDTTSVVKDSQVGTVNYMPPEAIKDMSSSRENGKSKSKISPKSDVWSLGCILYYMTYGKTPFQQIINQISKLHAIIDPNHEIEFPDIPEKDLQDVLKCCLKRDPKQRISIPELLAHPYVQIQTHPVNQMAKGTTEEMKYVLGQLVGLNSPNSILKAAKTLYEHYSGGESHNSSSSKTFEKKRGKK

Converted amounts (≈) assume the structure as drawn.

These results are taken from ChEMBL document CHEMBL4425165, “Discovery of Pyrazolo[1,5-a]pyrimidine TTK Inhibitors: CFI-402257 is a Potent, Selective, Bioavailable Anticancer Agent” (ACS Med Chem Lett, 2016).

The GI50 is the concentration that inhibits growth by half. The solubility is how much of the substance goes into solution per volume. For orientation: pKa means the negative logarithm of the acid dissociation constant. A word on the Cmax: it is the highest concentration seen after dosing. The AUC is the area under the concentration-time curve, a measure of exposure. A higher AUC goes with more exposure. The term IC50 denotes the concentration needed to halve the response being measured. A higher IC50 goes with weaker potency. Regarding `Cc1cc(-c2cnn3c(NCC4CCOCC4)nc(Oc4ccccc4)nc23)ccc1C(=O)NC1CC1`, the results for the GI50 in series [1], in series [2] and in series [3] were 160 nM, 14 nM and 190 nM, respectively. For the same compound, the values for the solubility in series [4] and in series [5] were 1.1 µg/mL (≈ 2.21 µM) and 1.5 µg/mL (≈ 3.01 µM), respectively. The same compound yielded a pKa in [6] of 1.6. Besides, in series [7], the Cmax came to 890 ng/mL. This compound also displayed an AUC in [8] of 1500 ng·h/mL. Further, the IC50 in series [9] turned out to be 1.4 nM.

For `Cc1cc(-c2cnn3c(NC[C@H]4C[C@](C)(O)C4)cc(Oc4cccnc4)nc23)ccc1C(=O)NC1CC1`, the concentration for 50% growth inhibition (GI50) in [1] was 71 nM; in series [2], 40 nM; in [3] it was 100 nM. The solubility worked out at 3.3 µg/mL (≈ 6.62 µM) in series [4] and 560 µg/mL (≈ 1120 µM) in [5]. The compound further yielded a pKa in [6] of 3.7. The maximum concentration (Cmax) in [7] is 1800 ng/mL. The compound further gave an AUC in [8] of 3900 ng·h/mL.

Turning to `Cc1cc(-c2cnn3c(NCC4CCOCC4)cc(NC4CCCC4)nc23)ccc1C(=O)NC1CC1`, the GI50 in [1] was determined as 36 nM; in [2], 15 nM; in [3] it was 90 nM. Besides, the results for the solubility in series [4] and in [5] were 3.1 µg/mL (≈ 6.34 µM) and 88 µg/mL (≈ 180 µM), respectively. The compound further gave a pKa in series [6] of 3.2. This compound also registered a Cmax in [7] of 2300 ng/mL. In addition, in [8], the AUC worked out at 4000 ng·h/mL. In series [9], this compound displayed an IC50 of 3.2 nM.

As to `Cc1cc(-c2cnn3c(NCCN4CCOCC4)cc(Oc4ccccc4)nc23)ccc1C(=O)NC1CC1`, the GI50 worked out at 18 nM in series [1], 11 nM in series [2] and 24 nM in [3]. Moreover, the results for the solubility in [4] and in series [5] were 1.6 µg/mL (≈ 3.12 µM) and 12000 µg/mL (≈ 23400 µM), respectively. The pKa in series [6] came out at 6.7. Moreover, the Cmax in series [7] was found to be 1000 ng/mL. In addition, the AUC in series [8] came to 2700 ng·h/mL. In series [9], this compound came in with an IC50 of 3 nM.

Take `Cc1cc(-c2cnn3c(NC[C@H]4C[C@H](O)C4)cc(NC4CCCC4)nc23)ccc1C(=O)NC1CC1`: the figures for the GI50 in [1], in series [2] and in [3] were 35 nM, 14 nM and 68 nM, respectively. Further, the solubility in series [4] was 5.4 µg/mL (≈ 11.4 µM); in series [5] it was 930 µg/mL (≈ 1960 µM). In [6], this compound yielded a pKa of 3.7. This compound also gave a Cmax in [7] of 180 ng/mL. Also, in series [8], the AUC was 130 ng·h/mL. Moreover, in series [9], the IC50 came to 2.4 nM.

On to `Cc1cc(-c2cnn3c(NCC4CCOCC4)cc(N[C@H]4CCC[C@H]4O)nc23)ccc1C(=O)NC1CC1`, for which the GI50 was determined as 62 nM in series [1], 59 nM in series [2] and 79 nM in series [3]. The solubility is 23 µg/mL (≈ 45.6 µM) in [4] and 480 µg/mL (≈ 951 µM) in series [5]. The pKa in series [6] is 3.2. In addition, in [7], the highest level (Cmax) was 1300 ng/mL. The AUC in series [8] turned out to be 1500 ng·h/mL. Moreover, in [9], the IC50 is 2.7 nM.

Turning to `Cc1cc(-c2cnn3c(NCC4CCOCC4)cc(Oc4ccccc4)nc23)ccc1C(=O)NC1CC1`, the GI50 in series [1] came to 13 nM; in series [2], 3 nM; in series [3], 22 nM. The solubility in [4] turned out to be 0.5 µg/mL (≈ 1 µM); in series [5] it was 12 µg/mL (≈ 24.1 µM). The compound also showed a pKa in series [6] of 3.4. This compound returned a Cmax in series [7] of 560 ng/mL. In series [8], the exposure (AUC) worked out at 3100 ng·h/mL. Further, the IC50 in series [9] came out at 2.5 nM.

On to `Cc1cc(-c2cnn3c(NCC4CCOCC4)cc(N[C@@H]4CCCC[C@H]4O)nc23)ccc1C(=O)NC1CC1`, for which the GI50 worked out at 180 nM in series [1], 130 nM in series [2] and 340 nM in series [3]. Moreover, the solubility in series [4] was 13 µg/mL (≈ 25.1 µM); in series [5] it was 410 µg/mL (≈ 790 µM). In series [6], this compound returned a pKa of 3.3. Moreover, in series [9], the IC50 amounted to 13 nM.

Consider `Cc1cc(-c2cnn3c(NC[C@H]4C[C@](C)(O)C4)cc(NC4CCCC4)nc23)ccc1C(=O)NC1CC1`, for which the GI50 in series [1] came to 130 nM; in series [2], 49 nM; in series [3], 210 nM. In addition, the solubility in series [4] came to 3.6 µg/mL (≈ 7.37 µM); in series [5], 110 µg/mL (≈ 225 µM). In addition, in series [6], the pKa was found to be 3.2. The IC50 in [9] turned out to be 5.3 nM.

With `Cc1cc(-c2cnn3c(NC[C@H]4CC[C@H](O)CC4)cc(Oc4cccnc4)nc23)ccc1C(=O)NC1CC1`, the figures for the GI50 in series [1], in series [2] and in [3] were 160 nM, 50 nM and 270 nM, respectively. Also, the solubility in series [4] worked out at 2.1 µg/mL (≈ 4.1 µM); in series [5], 360 µg/mL (≈ 702 µM). This compound gave a pKa in [6] of 3.7. Besides, in [7], the peak level (Cmax) was 190 ng/mL. This compound returned an area under the curve (AUC) in series [8] of 700 ng·h/mL. Moreover, 2.8 nM corresponded to half-maximal inhibition in series [9] (IC50).

Turning to `Cc1cc(-c2cnn3c(NC[C@H]4C[C@H](O)C4)cc(Oc4cccnc4)nc23)ccc1C(=O)NC1CC1`, the figures for the GI50 in [1], in [2] and in series [3] were 2 nM, 2 nM and 11 nM, respectively. The solubility stood at 5.4 µg/mL (≈ 11.1 µM) in series [4] and 930 µg/mL (≈ 1920 µM) in series [5]. Also, the pKa in series [6] was 3.7. The same compound displayed a Cmax in series [7] of 120 ng/mL. The compound further came in with an AUC in series [8] of 130 ng·h/mL. Further, 1.1 nM corresponded to half-maximal inhibition in series [9] (IC50).

For the compound `Cc1cc(-c2cnn3c(NC[C@H]4C[C@@](C)(O)C4)cc(NC4CCCC4)nc23)ccc1C(=O)NC1CC1`, the GI50 amounted to 57 nM in series [1], 14 nM in series [2] and 87 nM in [3]. In addition, the solubility in series [4] was found to be 3.6 µg/mL (≈ 7.37 µM); in series [5] it was 110 µg/mL (≈ 225 µM). The compound also showed a pKa in series [6] of 3.2. For the same compound, the Cmax in series [7] was determined as 2900 ng/mL. In [8], this compound came in with an AUC of 7300 ng·h/mL. Also, the midpoint of inhibition in series [9], the IC50, lay at 2.6 nM.

For `Cc1cc(-c2cnn3c(NCC4CCOCC4)nc(NC4CCCC4)nc23)ccc1C(=O)NC1CC1`, the results for the 50% growth inhibitory concentration (GI50) in series [1], in series [2] and in [3] were 320 nM, 130 nM and 480 nM, respectively. Also, the solubility in series [4] came out at 3.6 µg/mL (≈ 7.35 µM); in series [5], 28 µg/mL (≈ 57.2 µM). The pKa in [6] amounted to 2.7. The same compound displayed a Cmax in series [7] of 430 ng/mL. Besides, in [8], the AUC came out at 530 ng·h/mL. In series [9], this compound gave an IC50 of 5.8 nM.

As to `Cc1cc(-c2cnn3c(NCC4CCOCC4)cc(N[C@H]4CCCC[C@H]4O)nc23)ccc1C(=O)NC1CC1`, the GI50 in series [1] came out at 3 nM; in series [2], 1 nM; in [3] it was 9 nM. Also, the solubility in [4] came out at 13 µg/mL (≈ 25.1 µM); in series [5], 410 µg/mL (≈ 790 µM). Also, the pKa in series [6] came out at 3.3. The compound also registered a Cmax in series [7] of 2200 ng/mL. Besides, in series [8], the AUC was determined as 2400 ng·h/mL. Also, in series [9], the IC50 was found to be 2 nM.

`CC[C@H](CO)Nc1cc(NCC2CCOCC2)n2ncc(-c3ccc(C(=O)NC4CC4)c(C)c3)c2n1`: the GI50 turned out to be 480 nM in series [1], 210 nM in [2] and 1100 nM in series [3]. For the same compound, the values for the solubility in series [4] and in [5] were 27 µg/mL (≈ 54.8 µM) and 1100 µg/mL (≈ 2230 µM), respectively. Moreover, the pKa in [6] was determined as 3.5. In [9], the IC50 came out at 21 nM.

For the compound `Cc1cc(-c2cnn3c(NC[C@H]4CC[C@@H](O)CC4)cc(Oc4cccnc4)nc23)ccc1C(=O)NC1CC1`, the GI50 was 19 nM in series [1], 17 nM in series [2] and 43 nM in series [3]. Besides, the results for the solubility in series [4] and in series [5] were 2.1 µg/mL (≈ 4.1 µM) and 360 µg/mL (≈ 702 µM), respectively. The pKa in [6] stood at 3.7. The highest level in series [7] (Cmax) was 750 ng/mL. The same compound came in with an AUC in [8] of 3400 ng·h/mL. In series [9], this compound showed an IC50 of 1.8 nM.
